pIC50, pKd: −log10 of the molar value.
Columns and labels:
Mouse ERK2 protein = Mouse ERK2 protein (Mus musculus (Mouse), UniProt P63085); assay: Coupled MEK1/ERK2 IMAP assay or Active ERK2 IMAP assay; assay type: biochemical
ERK protein = ERK protein (Mus musculus, UniProt P63085); assay: TdF (Temperature Dependence Fluorescence, thermal shift) assay for ERK; assay type: binding; conditions: Table 2; 3 μM ERK protein
Excerpt: The SAR (Structure Activity Relationship) for ERK ligands covered by this invention was interrogated using the TdF (Temperature Dependence Fluorescence) assay or best known as thermal shift assay. (M. W. Pantoliano, et al., “High-density miniaturized thermal shift assays as a general strategy for drug discovery,” J. Biomol. Screen 6 (2001) 429-440) The TdF assay was mainly conducted in the 96-well based CHROMO-4 real time fluorescence plate reader (BioRad). The Sypro Orange (Sigma-Aldrich), environmentally sensitive fluorescence dye, was used to monitor the protein folding-unfolding transition. Protein-ligand binding was gauged by the change (or shift) in the unfolding transition temperature (ΔTm) acquired at protein alone with respect to protein in the presence of ligand of interest.
Compound of interest was first prepared in DMSO stock (typical concentration: 10 mM). […] Final percentage of DMSO resided in the sample was 2%. The sample plate was heated from 30° C. to 90° C. with thermal ramping rate of 1° C./min. The fluorescence signals were acquired with excitation and emission wavelengths centered at 490 and 560 nm respectively. The instrument thermal stability was ±0.2° C. The melting temperatures (Tm) for ERK protein under aforementioned conditions occurred at […] and 64.8±0.2° C. respectively.
The derivation of TdF-based ligand binding affinity constant (Kd) followed closely those previously formulated by Brandts and Lin. (J. F. Brandts, L.-N. Lin, “Study of strong to ultratight protein interactions using differential scanning calorimetry,” Biochemistry 29 (1990) 6927-6940). In brief, the binding constant of the ligand at the Tm is expressed as below:
[formula] where T0 is the midpoint of unfolding for unliganded protein and Tm is the midpoint of unfolding in presence of ligand. [LTm] is free ligand at Tm. The ΔHu and ΔCpu are the enthalpy of unfolding and heat capacity change of unfolding for the protein respectively. Following algorithm derived by Winsor and coworker, the T0, ΔHu and ΔCpu can be determined separately from nonlinear regression fitting the protein alone melting curve:
[formula] where F(T) is the observed fluorescence intensity at any temperature T, Yn, and Yu are the predicted fluorescence intensities for fully folded and unfolded protein, respectively; mn and mu are slope correction for changes in Yn and Yu with respect to changes in temperature (analogously replace T0 with Tm in the above equation for liganded protein to yield Tm). (Mayhood, T. W., Windsor, W. T., “Ligand binding affinity determined by temperature-dependent circular dichroism: Cyclin-dependent kinase 2 inhibitors,” Analytical Biochemistry 345 (2005) 187-197).
[formula] where ΔHL (T) is the van't Hoff enthalpy of ligand binding at temperature T and ΔCpL is the heat capacity upon ligand binding. For simplicity, the ΔCpL and ΔHL (T) were set to zero and -7 kcal/mol respectively. […]

ERK protein, sequence (P63085 2-358 limits assumed): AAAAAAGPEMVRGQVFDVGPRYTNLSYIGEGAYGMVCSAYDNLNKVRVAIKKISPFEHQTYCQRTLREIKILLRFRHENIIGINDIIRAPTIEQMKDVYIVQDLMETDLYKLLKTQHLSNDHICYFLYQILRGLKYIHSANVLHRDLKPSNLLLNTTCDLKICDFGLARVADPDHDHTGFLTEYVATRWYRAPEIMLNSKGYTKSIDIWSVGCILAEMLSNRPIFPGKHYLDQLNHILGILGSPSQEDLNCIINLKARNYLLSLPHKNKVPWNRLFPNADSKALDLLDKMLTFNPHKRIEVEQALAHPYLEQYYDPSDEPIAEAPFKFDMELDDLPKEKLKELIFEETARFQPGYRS
Mouse ERK2 protein, sequence (P63085 whole entry): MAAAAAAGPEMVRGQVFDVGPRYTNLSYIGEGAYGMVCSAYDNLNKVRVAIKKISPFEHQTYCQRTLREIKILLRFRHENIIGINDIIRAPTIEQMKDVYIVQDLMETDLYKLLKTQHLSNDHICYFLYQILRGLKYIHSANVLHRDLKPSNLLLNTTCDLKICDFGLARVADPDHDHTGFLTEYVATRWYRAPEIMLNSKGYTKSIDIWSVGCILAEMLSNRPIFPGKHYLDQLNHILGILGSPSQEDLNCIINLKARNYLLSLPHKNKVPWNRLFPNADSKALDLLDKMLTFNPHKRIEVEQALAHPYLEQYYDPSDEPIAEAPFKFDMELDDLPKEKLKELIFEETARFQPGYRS

| SMILES | pIC50 (Mouse ERK2 protein; Table 2, 30 μM ATP) | pKd (ERK protein) | pIC50 (Mouse ERK2 protein; Table 1, class symbols, 30 μM ATP) |
| --- | --- | --- | --- |
| Cn1c(CN2CCC[C@@H](NC(=O)N3CCc4[nH]nc(-c5ccncc5)c4C3)C2)cc2ccccc21 [Compound 61, 1,4,6,7-tetrahydro-N-[1-[(1-methyl-1H-indol-2-yl)methyl]-3(R)-piperidinyl]-3-(4-pyridinyl)-5H-pyrazolo[4,3-c]pyridine-5-carboxamide] | 9.52 | 9.33 |  |
| O=C(N[C@@H]1CCCN(Cc2csc3ccccc23)C1)N1CCc2[nH]nc(-c3ccc4nccn4c3)c2C1 [Compound 109, N-[1-(benzo[b]thien-3-ylmethyl)-3(R)-piperidinyl]-1,4,6,7-tetrahydro-3-(imidazo[1,2-a]pyridin-6-yl)-5H-pyrazolo[4,3-c]pyridine-5-carboxamide] | 8.52 | 9.85 |  |
| O=C(N[C@@H]1CCCN(Cc2cccc3ccccc23)C1)N1CCc2[nH]nc(-c3ccc4nccn4c3)c2C1 [Compound 112, 1,4,6,7-tetrahydro-3-imidazo[1,2-a]pyridin-6-yl-N-[1-(1-naphthalenylmethyl)-3(R)-piperidinyl]-5H-pyrazolo[4,3-c]pyridine-5-carboxamide] | 8.51 | 9.92 |  |
| Cn1cc(CN2CCC[C@@H](NC(=O)N3CCc4[nH]nc(-c5ccncc5)c4C3)C2)c2ccccc21 [Compound 60, 1,4,6,7-tetrahydro-N-[1-[(1-methyl-1H-indol-3-yl)methyl]-3(R)-piperidinyl]-3-(4-pyridinyl)-5H-pyrazolo[4,3-c]pyndine-5-carboxamide] | 8.91 | 8.95 |  |
| O=C(N[C@@H]1CCCN(Cc2csc3ccccc23)C1)N1CCc2[nH]nc(-c3ccncc3)c2C1 [Compound 57, N-[1-(benzo[b]thien-3-ylmethyl)-3(R)-piperidinyl]-1,4,6,7-tetrahydro-3-(4-pyridinyl)-5H-pyrazolo[4,3-c]pyridine-5-carboxamide] | 9.30 | 9.52 |  |
| O=C(N[C@@H]1CCCN(Cc2ccccc2Cl)C1)N1CCc2[nH]nc(-c3ccncc3)c2C1 [Compound 69, N-[1-[(2-chlorophenyl)-methyl]-3(R)-piperidinyl]-1,4,6,7-tetrahydro-3-(4-pyridinyl)-5H-pyrazolo[4,3-c]pyridine-5-carboxamide] | 8.62 | 9.51 |  |
| CC(=O)n1cc(CN2CCC[C@@H](NC(=O)N3CCc4[nH]nc(-c5ccncc5)c4C3)C2)c2ccccc21 [Compound 62, N-[1-[(1-acetyl-1H-indol-3-yl)methyl]-3(R)-piperidinyl]-1,4,6,7-tetrahydro-3-(4-pyridinyl)-5H-pyrazolo[4,3-c]pyridine-5-carboxamide] | 8.70 | 8.68 |  |
| COc1cccc(F)c1CN1CC(NC(=O)N2CCc3[nH]nc(-c4ccnc(C)c4)c3C2)CC(C(F)(F)F)C1 (centres unmarked) [Compound 123, N-[1-[(2-fluoro-6-methoxyphenyl)methyl]-5-(trifluoromethyl)-3-piperidinyl]-1,4,6,7-tetrahydro-3-(2-methyl-4-pyridinyl)-5H-pyrazolo[4,3-c]pyridine-5-carboxamide] | 8.37 | 10.22 |  |
| Cc1cccc(C)c1CN1CCC[C@@H](NC(=O)N2CCc3[nH]nc(-c4ccncc4)c3C2)C1 [Compound 71, N-[1-[(2,6-dimethylphenyl)-methyl]-3(R)-piperidinyl]-1,4,6,7-tetrahydro-3-(4-pyridinyl)-5H-pyrazolo[4,3-c]pyridine-5-carboxamide] | 8.68 | 9.82 |  |
| COc1cccc(F)c1CN1CCC[C@@H](NC(=O)N2CCc3[nH]nc(-c4ccc5nccn5c4)c3C2)C1 [Compound 113, N-[1-[(2-fluoro-6-methoxyphenyl)methyl]-3(R)-piperidinyl]-1,4,6,7-tetrahydro-3-(imidazo[1,2-a]pyridin-6-yl)-5H-pyrazolo[4,3-c]pyridine-5-carboxamide] | 8.38 | 10.52 |  |
| O=C(N[C@@H]1CCCN(Cc2ccccc2F)C1)N1CCc2[nH]nc(-c3ccncc3)c2C1 [Compound 48, N-[1-[(2-fluorophenyl)methyl]-3(R)-piperidinyl]-1,4,6,7-tetrahydro-3-(4-pyridinyl)-5H-pyrazolo[4,3-c]pyridine-5-carboxamide] | 9.19 | 9.43 |  |
| O=C(N[C@@H]1CCCN(Cc2c(F)cccc2F)C1)N1CCc2[nH]nc(-c3ccncc3)c2C1 [Compound 54, N-[1-[(2,6-difluorophenyl)methyl]-3(R)-piperidinyl]-1,4,6,7-tetrahydro-3-(4-pyridinyl)-5H-pyrazolo[4,3-c]pyridine-5-carboxamide] | 8.71 | 9.29 |  |
| Cc1noc(-c2ccccc2)c1CN1CCC[C@@H](NC(=O)N2CCc3[nH]nc(-c4ccncc4)c3C2)C1 [Compound 75, 1,4,6,7-tetrahydro-N-[1-[(3-methyl-5-phenyl-4-isoxazolyl)methyl]-3(R)-piperidinyl]-3-(4-pyridinyl)-5H-pyrazolo[4,3-c]pyridine-5-carboxamide] |  | 8.87 |  |
| Cc1cc(-c2n[nH]c3c2CN(C(=O)NC2CCCN(Cc4c(C)cccc4C)C2)CC3)ccn1 (centres unmarked) [Compound 84, N-[1-[(2,6-dimethylphenyl)-methyl]-3-piperidinyl]-1,4,6,7-tetrahydro-3-(2-methyl-4-pyridinyl)-5H-pyrazolo[4,3-c]pyridine-5-carboxamide] | 8.20 | 9.89 |  |
| Cc1ccccc1[C@@H]1CN(C)C[C@H]1NC(=O)N1CCc2[nH]nc(-c3ccncc3)c2C1 [Compound 46, 1,4,6,7-tetrahydro-N-[1-methyl-4(R)-(2-methylphenyl)-3(S)-pyrrolidinyl]-3-(4-pyridinyl)-5H-pyrazolo[4,3-c]pyridine-5-carboxamide] | 9.05 | 9.15 |  |
| Cc1ccc(CN2CCC[C@@H](NC(=O)N3CCc4[nH]nc(-c5ccncc5)c4C3)C2)s1 [Compound 59, 1,4,6,7-tetrahydro-N-[1-[(5-methyl-2-thienyl)methyl]-3(R)-piperidinyl]-3-(4-pyridinyl)-5H-pyrazolo[4,3-c]pyridine-5-carboxamide] | 8.75 | 8.82 |  |
| Cc1ccsc1CN1CCC[C@@H](NC(=O)N2CCc3[nH]nc(-c4ccncc4)c3C2)C1 [Compound 58, 1,4,6,7-tetrahydro-N-[1-[(3-methyl-2-thienyl)methyl]-3(R)-piperidinyl]-3-(4-pyridinyl)-5H-pyrazolo[4,3-c]pyridine-5-carboxamide] | 8.70 | 9.60 |  |
| Cc1cccc(C)c1CN1CCC[C@@H](NC(=O)N2CCc3[nH]nc(-c4ccc5nccn5c4)c3C2)C1 [Compound 110] | 8.28 | 10.52 |  |
| COc1cccc(F)c1CN1CCC[C@@H](NC(=O)N2CCc3[nH]nc(-c4ccncc4)c3C2)C1 [Compound 53, N-[1-[(2-fluoro-6-methoxyphenyl)methyl]-3(R)-piperidinyl]-1,4,6,7-tetrahydro-3-(4-pyridinyl)-5H-pyrazolo[4,3-c]pyridine-5-carboxamide] | 8.42 | 9.82 | > 7.70 |
| Cc1onc(-c2ccccc2)c1CN1CCC[C@@H](NC(=O)N2CCc3[nH]nc(-c4ccncc4)c3C2)C1 [Compound 76, 1,4,6,7-tetrahydro-N-[1-[(5-methyl-3-phenyl-4-isoxazolyl)methyl]-3(R)-piperidinyl]-3-(4-pyridinyl)-5H-pyrazolo[4,3-c]pyridine-5-carboxamide] |  | 8.81 |  |
| Cc1cc(-c2n[nH]c3c2CN(C(=O)N[C@@H]2CCCN(Cc4cccc5ccccc45)C2)CC3)ccn1 [Compound 100, 1,4,6,7-tetrahydro-3-(2-methyl-4-pyridinyl)-N-[1-(1-naphthalenylmethyl)-3(R)-piperidinyl]-5H-pyrazolo[4,3-c]pyridine-5-carboxamide] | 8.43 | 9.40 |  |

— patent publication US9242981B2, “Fused pyrazole derivatives as novel ERK inhibitors” (Merck Sharp & Dohme Corp., priority 2010, dated 2016)
